IC50 data for one molecule are collected here from PubChem BioAssay AID1671257.

This experiment deals with Tyrosine-protein kinase ABL2 (Homo sapiens) (UniProt P42684). The experiment in a line: inhibitors of human ABL2 (Arg) tyrosine kinase activity – biochemical, Z'-LYTE, FRET readout, direct format, dose response (AID 1671257). Particulars: Z'-LYTE FRET kinase assay, recombinant ABL2.

Molecules are shown by their SMILES.

Sequence of Tyrosine-protein kinase ABL2 (Homo sapiens) (P42684 whole entry, looked up): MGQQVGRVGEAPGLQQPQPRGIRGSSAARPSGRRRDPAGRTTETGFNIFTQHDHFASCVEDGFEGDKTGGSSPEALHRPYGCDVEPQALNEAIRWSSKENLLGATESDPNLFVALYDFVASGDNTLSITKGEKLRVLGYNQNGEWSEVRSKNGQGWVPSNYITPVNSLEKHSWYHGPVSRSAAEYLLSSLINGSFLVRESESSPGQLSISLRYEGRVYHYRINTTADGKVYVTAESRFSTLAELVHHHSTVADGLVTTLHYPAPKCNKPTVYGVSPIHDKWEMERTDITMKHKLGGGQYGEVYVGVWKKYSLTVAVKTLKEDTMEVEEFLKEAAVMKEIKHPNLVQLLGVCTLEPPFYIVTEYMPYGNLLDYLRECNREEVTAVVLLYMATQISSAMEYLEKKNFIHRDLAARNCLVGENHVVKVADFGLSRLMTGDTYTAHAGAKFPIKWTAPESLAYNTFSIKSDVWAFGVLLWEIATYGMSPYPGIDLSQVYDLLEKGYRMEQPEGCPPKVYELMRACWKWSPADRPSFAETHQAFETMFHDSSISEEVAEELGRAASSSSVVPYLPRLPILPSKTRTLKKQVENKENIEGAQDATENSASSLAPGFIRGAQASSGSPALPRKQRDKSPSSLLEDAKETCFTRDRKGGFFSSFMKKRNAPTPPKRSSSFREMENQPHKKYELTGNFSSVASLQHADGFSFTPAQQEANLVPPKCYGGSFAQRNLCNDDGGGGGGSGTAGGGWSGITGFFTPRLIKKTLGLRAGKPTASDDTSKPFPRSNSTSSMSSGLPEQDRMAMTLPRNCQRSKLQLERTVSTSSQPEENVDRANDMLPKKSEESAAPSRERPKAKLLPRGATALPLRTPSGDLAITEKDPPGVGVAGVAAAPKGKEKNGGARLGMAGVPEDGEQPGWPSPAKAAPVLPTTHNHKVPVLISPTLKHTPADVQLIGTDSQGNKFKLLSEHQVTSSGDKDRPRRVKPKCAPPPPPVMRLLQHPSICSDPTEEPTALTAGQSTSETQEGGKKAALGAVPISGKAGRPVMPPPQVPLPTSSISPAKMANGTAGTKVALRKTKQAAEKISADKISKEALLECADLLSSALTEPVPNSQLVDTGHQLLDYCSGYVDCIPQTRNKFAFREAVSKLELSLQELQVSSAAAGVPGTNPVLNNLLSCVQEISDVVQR

Usually IC50 stands for the point on the concentration scale where inhibition reaches its midpoint. In the case of `COc1cc2ncnc(Nc3cccc(Cl)c3)c2cc1OC`, the IC50 was 1050 nM.
